The structures appear in SMILES notation. In brackets after ≈: the same amount, converted by molar mass. Activity calls are given as the source filed them. No cut-off for these calls is given here.

Series [1] has as its system HCT-116. Briefly: Growth inhibition of human HCT116 cells measured after 72 hrs by Celltiter-Glo assay. It is filed as functional. Background: In ATP-based viability assays light output follows the ATP content of the culture.
Series [2] deals with Serine/threonine-protein kinase ATR (Homo sapiens) (UniProt Q13535). Briefly: Inhibition of ATR in human HCT116 cells assessed as decrease in Chk1 phosphorylation at Ser317 residue at 250 nM treated for 1 hr prior to UV-irradiation exposure and measured after 1 hr by Immunoblot analysis. It is filed as cell-based. To be noted: HCT-116, time 2.0 hrs. For orientation: In western blotting, separated proteins are transferred to a membrane and probed.

The target of series [3] is Serine/threonine-protein kinase mTOR (Homo sapiens) (UniProt P42345). Description: Inhibition of mTOR in human HCT116 cells assessed as decrease in p70S6K phosphorylation at Thr389 residue at 50 nM treated for 1 hr prior to UV-irradiation exposure and measured after 1 hr by immunoblot analysis. It counts as cell-based. To be noted: HCT-116, time 2.0 hrs.
Series [4] addresses Serine/threonine-protein kinase ATR (Homo sapiens) (UniProt Q13535). Briefly: Inhibition of ATR in human HCT116 cells assessed as decrease in Chk1 phosphorylation at Ser317 residue by measuring decrease in foci formation at 50 nM treated for 1 hr prior to UV-irradiation exposure and measured after 1 hr by Immunofluorescence analysis. To be noted: HCT-116, time 2.0 hrs. It counts as cell-based.

A short description of series [5]: Aqueous solubility of the compound relative to Torin2. It is filed as physicochemical. The following applies: buffer.
In series [6] the test system is HeLa. Briefly: Growth inhibition of human HeLa cells measured after 72 hrs by Celltiter-Glo assay. It is filed as functional.
Series [7] has as its system HCT-116. Description: Inhibition of ATR/mTOR in human HCT116 cells harboring ATM+/-p53+/+ gene allele assessed as premature chromatin condensation at 50 nM treated for 1 hr prior to UV-irradiation exposure and measured after 1 hr by DAPI staining based confocal microscopic method. It is filed as cell-based. The following applies: time 2.0 hrs.
A short description of series [8]: Stability in human liver microsomes assessed as proportion of drug metabolized measured after 30 mins. It is filed as ADME, Microsome. The following applies: read-out: Drug metabolism.
A short description of series [9]: Stability in mouse liver microsomes assessed as proportion of drug metabolized measured after 30 mins. To be noted: read-out: Drug metabolism. It is filed as ADME, Microsome.
The nature of series [10]: Stability in rat liver microsomes assessed as proportion of drug metabolized measured after 30 mins. It counts as ADME, Microsome. The following applies: read-out: Drug metabolism.
Series [11] is described as follows: Half life in human liver microsome. It counts as ADME. The following applies: liver microsomes.
Series [12] in a line: Half life in mouse liver microsome. It is filed as ADME. The following applies: liver microsomes. (In general: Liver microsomes are a subcellular fraction often used to study metabolism.)
Series [13] in a line: Half life in rat liver microsome. It counts as ADME. To be noted: liver microsomes.
Series [14] in a line: Intrinsic clearance in human liver microsome. To be noted: liver microsomes, read-out: CLH. It is filed as ADME.
Series [15] in a line: Intrinsic clearance in mouse liver microsome. It counts as ADME. To be noted: liver microsomes, read-out: CLH.
A short description of series [16]: Intrinsic clearance in rat liver microsome. It is filed as ADME. The following applies: liver microsomes, read-out: CLH.
Series [17] deals with T1, Serine-protein kinase ATM (Homo sapiens, UniProt Q13315). Description: Inhibition of ATM in human HCT116 cells assessed as decrease in Chk2 phosphorylation at Thr68 residue by measuring decrease in foci formation at 50 nM treated for 1 hr prior to UV-irradiation exposure and measured after 1 hr by immunofluorescence assay. It counts as cell-based. To be noted: hct-116, 2 h, 0.05 µM.
T1 sequence (Q13315 whole entry): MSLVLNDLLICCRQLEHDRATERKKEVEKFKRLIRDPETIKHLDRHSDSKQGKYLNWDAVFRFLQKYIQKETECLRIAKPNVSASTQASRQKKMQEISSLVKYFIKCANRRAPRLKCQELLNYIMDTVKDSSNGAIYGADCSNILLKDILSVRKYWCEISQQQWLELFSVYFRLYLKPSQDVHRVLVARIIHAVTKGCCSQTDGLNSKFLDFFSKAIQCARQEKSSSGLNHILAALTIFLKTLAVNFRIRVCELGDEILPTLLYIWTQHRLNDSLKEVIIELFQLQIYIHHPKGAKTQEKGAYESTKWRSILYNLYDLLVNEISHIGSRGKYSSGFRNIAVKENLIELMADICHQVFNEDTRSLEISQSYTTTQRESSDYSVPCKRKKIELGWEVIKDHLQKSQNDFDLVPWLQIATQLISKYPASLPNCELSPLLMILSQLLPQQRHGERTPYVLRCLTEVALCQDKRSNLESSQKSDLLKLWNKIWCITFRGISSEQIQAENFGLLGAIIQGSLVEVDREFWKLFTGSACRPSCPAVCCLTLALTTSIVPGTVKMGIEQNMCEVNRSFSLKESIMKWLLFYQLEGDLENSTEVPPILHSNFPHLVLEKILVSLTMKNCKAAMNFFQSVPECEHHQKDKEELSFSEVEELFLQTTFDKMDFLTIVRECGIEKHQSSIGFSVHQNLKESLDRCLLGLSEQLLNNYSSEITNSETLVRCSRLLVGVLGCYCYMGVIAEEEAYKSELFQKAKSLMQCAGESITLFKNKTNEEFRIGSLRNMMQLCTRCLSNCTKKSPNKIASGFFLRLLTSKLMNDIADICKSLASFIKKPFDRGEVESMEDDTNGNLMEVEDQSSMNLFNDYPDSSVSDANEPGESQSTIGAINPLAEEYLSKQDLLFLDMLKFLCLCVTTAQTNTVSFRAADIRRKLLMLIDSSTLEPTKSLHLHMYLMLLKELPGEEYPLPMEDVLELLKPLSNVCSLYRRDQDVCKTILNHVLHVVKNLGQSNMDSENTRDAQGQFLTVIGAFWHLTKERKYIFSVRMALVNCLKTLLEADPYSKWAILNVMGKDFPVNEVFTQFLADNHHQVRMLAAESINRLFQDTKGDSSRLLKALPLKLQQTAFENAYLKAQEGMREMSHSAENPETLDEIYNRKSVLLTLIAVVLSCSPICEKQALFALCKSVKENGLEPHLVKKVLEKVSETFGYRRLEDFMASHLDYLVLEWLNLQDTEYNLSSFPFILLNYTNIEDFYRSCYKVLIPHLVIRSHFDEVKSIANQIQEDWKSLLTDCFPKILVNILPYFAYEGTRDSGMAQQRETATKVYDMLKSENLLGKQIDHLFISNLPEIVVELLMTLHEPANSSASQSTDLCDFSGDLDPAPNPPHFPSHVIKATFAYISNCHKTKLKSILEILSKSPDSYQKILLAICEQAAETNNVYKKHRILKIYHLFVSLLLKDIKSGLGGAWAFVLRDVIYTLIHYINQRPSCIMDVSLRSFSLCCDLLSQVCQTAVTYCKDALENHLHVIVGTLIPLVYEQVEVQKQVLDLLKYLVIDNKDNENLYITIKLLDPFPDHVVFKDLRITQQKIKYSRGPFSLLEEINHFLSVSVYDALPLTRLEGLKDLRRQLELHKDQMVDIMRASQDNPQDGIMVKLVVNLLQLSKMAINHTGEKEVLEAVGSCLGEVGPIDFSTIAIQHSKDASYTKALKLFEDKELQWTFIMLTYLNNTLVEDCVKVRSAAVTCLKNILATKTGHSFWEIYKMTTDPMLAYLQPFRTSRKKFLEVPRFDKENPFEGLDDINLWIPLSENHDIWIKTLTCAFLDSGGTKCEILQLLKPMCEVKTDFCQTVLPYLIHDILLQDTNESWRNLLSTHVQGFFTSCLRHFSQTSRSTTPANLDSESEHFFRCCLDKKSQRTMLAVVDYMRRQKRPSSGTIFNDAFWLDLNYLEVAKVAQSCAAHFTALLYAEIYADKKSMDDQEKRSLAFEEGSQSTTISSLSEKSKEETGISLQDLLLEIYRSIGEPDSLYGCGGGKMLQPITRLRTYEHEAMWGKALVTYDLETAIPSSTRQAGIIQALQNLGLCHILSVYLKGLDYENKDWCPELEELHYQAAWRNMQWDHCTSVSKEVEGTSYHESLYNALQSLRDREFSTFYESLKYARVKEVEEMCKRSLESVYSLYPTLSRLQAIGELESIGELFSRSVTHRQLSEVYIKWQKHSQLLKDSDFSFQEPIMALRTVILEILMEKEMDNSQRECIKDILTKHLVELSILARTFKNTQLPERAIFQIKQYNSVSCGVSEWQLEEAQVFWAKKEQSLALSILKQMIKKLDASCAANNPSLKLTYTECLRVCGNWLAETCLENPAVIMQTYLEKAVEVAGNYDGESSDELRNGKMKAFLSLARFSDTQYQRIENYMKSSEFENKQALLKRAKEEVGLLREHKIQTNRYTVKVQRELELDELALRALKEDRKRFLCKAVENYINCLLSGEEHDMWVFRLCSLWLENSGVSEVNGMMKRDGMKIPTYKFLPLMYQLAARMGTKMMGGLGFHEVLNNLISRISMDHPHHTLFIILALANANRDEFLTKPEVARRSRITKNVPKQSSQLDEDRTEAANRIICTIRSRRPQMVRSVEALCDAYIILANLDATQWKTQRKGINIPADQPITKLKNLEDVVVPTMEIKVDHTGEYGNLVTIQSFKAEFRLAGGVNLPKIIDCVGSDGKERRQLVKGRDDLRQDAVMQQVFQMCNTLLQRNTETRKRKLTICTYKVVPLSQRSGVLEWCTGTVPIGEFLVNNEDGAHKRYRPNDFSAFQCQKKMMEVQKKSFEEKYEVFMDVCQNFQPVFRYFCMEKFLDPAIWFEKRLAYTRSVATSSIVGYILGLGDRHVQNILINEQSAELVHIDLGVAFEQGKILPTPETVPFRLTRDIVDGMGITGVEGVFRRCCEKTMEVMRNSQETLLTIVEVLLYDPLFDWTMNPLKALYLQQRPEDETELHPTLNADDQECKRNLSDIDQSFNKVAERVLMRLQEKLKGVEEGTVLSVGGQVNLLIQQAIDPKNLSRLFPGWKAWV

For series [18], the target named is T1, Serine-protein kinase ATM. Description: Inhibition of ATM in human HCT116 cells assessed as decrease in gammaH2AX phosphorylation at Ser139 residue by measuring decrease in foci formation at 50 nM treated for 1 hr prior to UV-irradiation exposure and measured after 1 hr by immunofluorescence assay. It is filed as cell-based. The following applies: hct-116, 2 h, 0.05 µM.

Series [19] is described as follows: Aqueous solubility of the compound. It is filed as physicochemical.
Series [20] concerns the target Serine/threonine-protein kinase mTOR (Homo sapiens) (UniProt P42345). Description: Inhibition of mTOR in human HCT116 cells assessed as decrease in p70S6K phosphorylation at Thr389 residue at 250 nM treated for 1 hr prior to UV-irradiation exposure and measured after 1 hr by immunoblot analysis. It counts as cell-based. To be noted: HCT-116, time 2.0 hrs.

`CS(=O)(=O)Nc1ccc(-c2ccc3ncc4ccc(=O)n(-c5cccc(C(F)(F)F)c5)c4c3c2)cn1`: the GI50 (as a rule, the concentration that inhibits growth by half) in series [1] is 1420 nM. In addition, the inhibition result in series [2] and in [3] was “Active” throughout.
On to `O=c1ccc2cnc3ccc(-c4ccc(N5CCNCC5)nc4)cc3c2n1-c1cccc(C(F)(F)F)c1`, for which the inhibition result in [4], in [3] and in [7] was “Active” in each case. Further, the “fold change (FC)” value in [5] amounted to 10. The GI50 stood at 56 nM in series [1] and 50.4 nM in series [6]. Also, the inhibition (usually the change of the read-out against control, counted positive when it falls) in [2] was determined as 100%. Moreover, the results for the metabolised at 0.5 h in [8], in [9] and in series [10] were 55%, 11% and 41%, respectively. The values for the half-life in [11], in series [12] and in [13] were 31 min, 157 min and 42 min, respectively. Also, the microsomal CLint in series [14] is 44 µL/min/mg; in series [15] it was 9 µL/min/mg; in [16], 33 µL/min/mg. Moreover, the “inhibition (INH)” value in [17] and in series [18] was “Not Active” in each case. Besides, in series [19], the solubility (usually how much of the substance goes into solution per volume) turned out to be 22 µM (≈ 11 µg/mL).
`O=c1ccc2cnc3ccc(-c4ccc(N5CCOCC5)nc4)cc3c2n1-c1cccc(C(F)(F)F)c1`: the GI50 in series [1] came to 800 nM; in series [6], 330 nM. Also, the inhibition result in series [2] and in [3] was “Active” throughout.
Take `Nc1cnc(-c2ccc3ncc4ccc(=O)n(-c5cccc(C(F)(F)F)c5)c4c3c2)cn1`: in [4], the inhibition result is “inactive”. Besides, the GI50 stood at 135 nM in series [1] and 121 nM in [6]. For the same compound, the inhibition entry in [2], in series [3] and in [20] was “Active” in each case. Also, in series [18], the “inhibition (INH)” value was “Not Active”.
For the compound `Nc1ccc(-c2ccc3ncc4ccc(=O)n(-c5cccc(C(F)(F)F)c5)c4c3c2)cn1`, the inhibition result in series [4] and in series [7] was “Active” in each case. In addition, the GI50 in series [1] was found to be 32.2 nM; in series [6] it was 98 nM.
